Marks after values point to notes of the source that are not given here.

Data set [1] has as its system mouse skeletal muscle cells (C2C12). Description: Western blot of p-AMPK and PPAR-δ in midodrine-treated skeletal muscle cells. Type of data set: cell-based. To be noted: FIG. 1. How it is done:
(§1) The L6 and HL1 cells were grown in a medium (DMEM) containing 10% FBS (fetal bovine serum) and 1% antibiotic until about 80% confluence, and then the medium was replaced with a medium containing 1% FBS for differentiation for 4 days. The drug was treated on day 3 of differentiation. All in-vitro experiments using the L6 and HL1 cells were conducted 24 hours after the drug treatment.
(§2) In order to investigate the effect of α1-AR stimulation on AMPK and AMPK phosphorylation (activation) in vitro, the mouse skeletal muscle cells […] and the mouse cardiac muscle cells (HL1) cultured in Example 1-1 were treated with 30 μM of midodrine, which is an α1-AR agonist, and then western blot was conducted as described in Example 2-3.
A general note: A western blot detects proteins with antibodies after separation by electrophoresis.

In data set [2] the test system is mouse cardiac muscle cells (HL1). Description: Western blot of p-AMPK and PPAR-δ in midodrine-treated cardiac muscle cells. In kind it is cell-based. As to conditions: FIG. 1. The protocol: as §1, §2
Data set [3] deals with SDH (succinate dehydrogenase). Description: Enzymatic activity of SDH in skeletal muscle of SHR. Type of data set: in vivo, spontaneously hypertensive rat (SHR). To be noted: among groups I-IV, FIG. 3A.
Experimental: After adding 10 μL of protease inhibitor cocktail per 1 mL of PBS (phosphate-buffered saline) to each well (500 μL), 410 μL of a culture solution prepared by mixing 1 M phosphate buffer (25 μL×25=625 μL), 0.2 M sodium succinate (125 μL×25=3125 μL), NBT (25 μL×25=625 μL) and D.W. (235 μL×25=5875 μL) per well was heated to 37° C. for 20 minutes. […] After conducting centrifugation at 13000 rpm and 4° C. for 5 minutes, the supernatant was recovered and transferred to a fresh tube. After adding 410 μL of a culture solution to a tube, enzymatic reaction was conducted by adding 90 μL of the sample. After adding 410 μL of distilled water (DW) to another tube and adding 90 μL of the sample, the absorbance of the dilute was measured. After adding the enzymatic reaction tube and the another tube in water bath at 37° C., respectively, reaction was conducted for 30 minutes. The reaction was terminated by putting the tube in ice. After adding 200 μL to each well of a 96-well plate, absorbance was measured at 550 nm. Then, the enzymatic activity of succinate dehydrogenase (SDH) was measured by the following equation.
Enzymatic activity=(absorbance of enzymatic reaction solution−absorbance of diluted enzymatic reaction solution)/protein content (Bradford 595 nm)
The test system of the next data set is cytochrome c oxidase. Description: Immunohistochemical staining for cytochrome c oxidase in skeletal muscle tissue of SHR. As to conditions: among groups I-IV, FIG. 3B. In kind it is in vivo, spontaneously hypertensive rat (SHR).
Data set [4] is described as follows: ATP level in tissue by ELISA. In kind it is in vivo, spontaneously hypertensive rat (SHR). As to conditions: SHR, compared to control SHRs, FIG. 4. How it is done:
0.02 g of liver tissue isolated from the rats of Example 1-2 was homogenized in 500 μL of PBS. The homogenate was centrifuged at 1500×g (or 5000 rpm) for 15 minutes and the supernatant was recovered. After adding 100 μL of standard materials or samples to adequate wells of a pre-coated microtiter plate, 10 μL of the remaining solution was added to the sample. After adding 50 μL of the conjugate to each well and then mixing, the plate was covered and incubation was conducted at 37° C. for 1 hour. After adding 50 μL of each of substrates A and B to each well, incubation was conducted at 37° C. for 15 minutes. After adding a stop solution to each well, optical density was measured at 450 nm using a microplate reader.
The ATP level in the heart, skeletal muscle and liver of basal 4-week-old rat (I), midodrine-administered rat (II), atenolol-administered rat (III) and unadministered 8-week-old control rat (IV) was measured by ELISA according to the method of Example 2-1.

Data set [5] in a line: Blood adiponectin by ELISA, normalized to visceral fat weight. To be noted: SHR, 4 weeks in drinking water, mean ± SD. Type of data set: in vivo, spontaneously hypertensive rat (SHR). From the text: The measured adiponectin level was normalized to the visceral fat weight (g).
For orientation: ELISA stands for enzyme-linked immunosorbent assay.

For data set [6], the system named is HMG-CoA reductase protein (HMGCR). The experiment in a line: Expression of HMG-CoA reductase protein in liver of SHR. As to conditions: among rat groups, FIG. 7. In kind it is in vivo, spontaneously hypertensive rat (SHR).
In data set [7] the test system is mouse-derived preadipocytes (3T3-L1). The experiment in a line: Fat content in adipocytes observed by microscope. In kind it is cell-based. To be noted: FIG. 8A. The protocol: (§3) The 3T3-L1 cells were grown in a medium (DMEM) containing 10% FBS (fetal bovine serum) and 1% antibiotic until 100% and then cultured for 48 hours after replacing the medium with a fresh medium. After adding a differentiation medium and the drug, the cells were cultured for 48 hours. The composition of the differentiation medium was as follows: 0.0125 μmol/mL dexamethasone, 12.5 μmol/mL 3-isobutyl-1-methylxanthine, 10 μg/mL insulin, 10% FBS. After treating with the differentiation medium for 48 hours, the medium was replaced with an insulin medium containing 10 μg/mL insulin and 10% FBS and then treated for 48-96 hours. Then, after replacing the medium with a normal medium containing 10% FBS only, the cells were cultured for 24-48 hours and then used for experiments.

The next data set relates to preadipocytes (3T3-L1). Description: Western blot of PPAR-δ, p-AMPK and PGC-1α in midodrine-treated adipocytes. To be noted: midodrine-treated adipocytes (3T3-L1), FIG. 8B. In kind it is cell-based, mouse. The protocol:
as §3
In addition, when western blotting was conducted on the midodrine-treated adipocytes according to the method of Example 2-3, the expression of […], p-AMPK and PGC-1α proteins suppressing fat synthesis/accumulation was increased as shown in FIG. 8B.

The nature of data set [8]: Body weight, heart weight and abdominal fat weight in SHR. In kind it is in vivo, spontaneously hypertensive rat (SHR). The protocol:
Body weight was measured for the same rats whose cardiac function was measured.
When the body weight and the weight of abdominal fat (visceral fat) were measured for the midodrine-administered rat (II), atenolol-administered rat (III) and unadministered 8-week-old hypertensive control rat (IV) of Example 1-2, midodrine administration decreased both the body weight and abdominal fat as shown in FIG. 9.

Data set [9] concerns spontaneously hypertensive rat (SHR). Description: Cardiac function by M-mode echocardiography and heart rate in SHR. As to conditions: for Diastolic left ventricular inner diameter / Diastolic left ventricular posterior wall / Diastolic left ventricular wall / Left ventricular ejection fraction / Left ventricular fractional shortening / Left ventricular mass measured by ASE / Systolic left ventricular inner diameter / left ventricular performance: 8-week-old SHR, echocardiography; for Diastolic left ventricular inner diameter / Diastolic left ventricular posterior wall / Diastolic left ventricular wall / Left ventricular ejection fraction / Left ventricular fractional shortening / Left ventricular mass measured by ASE / Systolic left ventricular inner diameter: 4 weeks in drinking water (midodrine 0.3 mg/kg/day, atenolol 1 mg/kg/day), mean ± SD; for left ventricular performance: compared with unadministered control group IV.

In data set [10] the test system is AMPK/PPAR-δ/PGC1α proteins. The experiment in a line: Western blot of AMPK, PPAR-δ and PGC-1α proteins in cardiac muscle, skeletal muscle, fat and liver of SHR.
Setting [11] is: 8-week-old SHR, 4 weeks in drinking water (midodrine 0.3 mg/kg/day, atenolol 1 mg/kg/day), mean ± SD.

On to `COc1ccc(OC)c(C(O)CNC(=O)CN)c1` (racemic) [Midodrine, (RS)—N-[2-(2,5-dimethoxyphenyl)-2-hydroxyethyl]glycinamide], for which the “expression of PPAR-δ protein” value in data set [1] was “increases”. Moreover, in [1] (midodrine 30 μM), the “expression of phosphorylated AMPK” value was “increased”. Further, the “expression of PPAR-δ protein” value in data set [2] was “increases”. For the same compound, the “expression and phosphorylation of AMPK” value in data set [2] (midodrine 30 μM) is “resulted in the expression and phosphorylation of AMPK”. Besides, the “enzymatic activity of SDH in skeletal muscle” value in data set [3] is “the highest increase”. Besides, the “cytochrome c oxidase immunohistochemical staining in skeletal muscle tissue” value in the data set with cytochrome c oxidase is listed as “the highest increase”. Besides, in data set [4], the “ATP level in heart tissue” value is reported as “higher”. In addition, the “Adiponectin (serum level per weight of visceral fat)” value in data set [5] is given as 7585.8 ± 182.3^b ng/mL/g. In addition, in [5] (listed as group II), the “Adiponectin (serum level per weight of visceral fat)” value is “remarkably higher”. Also, the “expression level of HMG-CoA reductase protein (HMGCR) in the liver” value in data set [6] is reported as “the lowest”. In data set [7] (3T3-L1, 30 μM/L midodrine, microscope), the “fat content in adipocytes” value is on record as “decreased”. In the data set with preadipocytes (3T3-L1), the “expression of PGC-1α protein” value is given as “increased”, the “expression of PPAR-5 protein” value is “increased” and the “expression of p-AMPK protein” value is reported as “increased”. Also, in data set [8] (setting [11]), the Body weight was 238.24 ± 11.69^a g and the Hear weight was 1.47 ± 0.16^a g. In addition, the Body weight entry in [8] (SHR groups II, III and IV, FIG. 9 (A)) is on record as “decreased”. Further, the “weight of abdominal fat (visceral fat)” value in data set [8] (SHR groups II, III and IV, FIG. 9 (B)) is listed as “decreased”. Moreover, in data set [9], the “Diastolic left ventricular inner diameter” value is given as 6.06 ± 0.42^a mm, the “Diastolic left ventricular posterior wall” value is listed as 1.54 ± 0.13^a mm, the “Diastolic left ventricular wall” value is listed as 1.46 ± 0.13^a mm and the “Left ventricular ejection fraction” value is recorded as 81.55 ± 6.12^a %. In addition, in [9], the “Left ventricular fractional shortening” value is recorded as 45.48 ± 6.25^a %, the “Left ventricular mass measured by ASE” value worked out at 1.04 ± 0.06 g, the “Systolic left ventricular inner diameter” value is 3.32 ± 0.54^a mm and the left ventricular performance result is listed as “higher”. Also, in data set [9] (listed as group II), the “Left ventricular mass measured by ASE” value is “the lowest”. For the same compound, the “cardiac hypertrophy or further increase in blood pressure” value in data set [9] (SHR, summary statement, no blood pressure method described) is “without cardiac hypertrophy or further increase in blood pressure”. Also, in data set [10] (4 weeks in drinking water, compared to control group IV, FIG. 2B), the “AMPK expression in cardiac muscle” value was “remarkably higher”. Also, the “AMPK expression in skeletal muscle” value in [10] (4 weeks in drinking water, compared to control group IV, FIG. 2C) is “remarkably higher”. Also, the “AMPK expression in fat” value in [10] (4 weeks in drinking water, compared to control group IV, FIG. 2D) is listed as “remarkably higher”. The “expression level of the phosphorylated AMPK protein in the liver” value in data set [10] (among groups I-IV, FIG. 2E) is listed as “the highest”. In addition, the “activation and expression of AMPK, PPAR-δ and PGC-1α in the heart, skeletal muscle and liver” value in data set [10] (summary statement) was “induces activation and increased expression”.

On to `CC(C)NCC(O)COc1ccc(CC(N)=O)cc1` (stereo not shown) [Atenolol, atenolol], for which the “ATP level in heart tissue” value in [4] is given as “higher”. In data set [5], the “Adiponectin (serum level per weight of visceral fat)” value is reported as 6136.5 ± 574.7^b,c ng/mL/g. For the same compound, the “expression level of HMG-CoA reductase protein (HMGCR) in the liver” value in [6] is on record as “the lowest”. For the same compound, in data set [8] (setting [11]), the Body weight is reported as 296.46 ± 16.73^b g and the Hear weight is 1.47 ± 0.15^a g. Besides, the Body weight result in [8] (8-week-old SHR, 4 weeks in drinking water (midodrine 0.3 mg/kg/day, atenolol 1 mg/kg/day), mean ± SD, listed as group III) is reported as “the highest”. Also, in [9], the “Diastolic left ventricular inner diameter” value is recorded as 6.33 ± 0.35^a mm, the “Diastolic left ventricular posterior wall” value amounted to 1.67 ± 0.16 mm, the “Diastolic left ventricular wall” value is listed as 1.50 ± 0.13^a mm and the “Left ventricular ejection fraction” value was 82.00 ± 5.31^a %. In addition, in data set [9], the “Left ventricular fractional shortening” value was 45.70 ± 5.82^a %, the “Left ventricular mass measured by ASE” value is recorded as 1.10 ± 0.07^a g, the “Systolic left ventricular inner diameter” value is given as 3.43 ± 0.28^a mm and the left ventricular performance entry was “higher”. Moreover, the heart rate entry in data set [9] (SHR from 4 weeks of age, measured over 1 month, at the end of the experiment, among three groups, FIG. 6) is listed as “the lowest”.

For `COC(=O)c1sccc1S(=O)(=O)Nc1ccc(Nc2ccccc2)cc1OC` [GSK0660], the “effect on fat content in adipocytes when GSK0660 is added to midodrine” value in [7] (3T3-L1, 30 μM/L midodrine + 50 μM/L GSK0660 mixture (1:2 (w/w))) was “the effect of midodrine was decreased”.

For the origin of these results see patent publication US20190240172A1, “PHARMACEUTICAL COMPOSITION FOR PREVENTING OR TREATING DIABETES AND/OR […] COMPRISING MIDODRINE OR PHARMACEUTICALLY ACCEPTABLE SALT THEREOF AS ACTIVE INGREDIENT” (Cellvertics Co., Ltd., priority 2016, published 2019).
